Measured values: US20250368649A1, “TETRAHYDROPYRIDOPYRIMIDINE PAN-KRAS INHIBITORS” (Mirati Therapeutics, Inc., priority 2022, published 2025)

Assays:
HCT116 cells = test: Inhibition of KRas-mediated phosphorylation of ERK (Cisbio HTRF pERK), HCT116 cells; format: cell-based; conditions: Homo sapiens; for inhibition at 0.1 µM: HCT-116, single point at 100 nM, 3 hrs compound incubation
ASPC1 cells = test: Inhibition of KRas-mediated phosphorylation of ERK (Cisbio HTRF pERK), ASPC1 cells; format: cell-based; conditions: Homo sapiens, AsPC-1 cells; for IC50: ASPC1, 3 h, 3 hr compound incubation, Cisbio pERK HTRF; for inhibition at 0.1 µM: ASPC1, single point at 100 nM, 3 hrs compound incubation
H727 cells = test: Inhibition of KRas-mediated phosphorylation of ERK (Cisbio HTRF pERK), H727 cells; format: cell-based; conditions: Homo sapiens; for IC50: NCI-H727, 3 h, 3 hr compound incubation, Cisbio pERK HTRF; for inhibition at 0.1 µM: NCI-H727, single point at 100 nM, 3 hrs compound incubation
KRas G12D = KRas G12D (Homo sapiens, UniProt P01116, G12D); test: biochemical; conditions: Binding to KRas (IC50 nM) G12D, TR-FRET displacement, KRas G12D
H358 cells = test: Inhibition of KRas-mediated phosphorylation of ERK (Cisbio HTRF pERK), H358 cells; format: cell-based; conditions: Homo sapiens; for inhibition at 0.1 µM: NCI-H358, single point at 100 nM, 3 hrs compound incubation
A549 cells = test: Inhibition of KRas-mediated phosphorylation of ERK (Cisbio HTRF pERK), A549 cells; format: cell-based; conditions: Homo sapiens; for inhibition at 0.1 µM: single point at 100 nM, 3 hrs compound incubation
KRas G12R = KRas G12R (Homo sapiens, UniProt P01116, G12R); test: biochemical; conditions: Binding to KRas (IC50 nM) G12R, TR-FRET displacement, KRas G12R
H460 cells = test: Inhibition of KRas-mediated phosphorylation of ERK (Cisbio HTRF pERK), H460 cells; format: cell-based; conditions: Homo sapiens; for inhibition at 0.1 µM: NCI-H460, single point at 100 nM, 3 hrs compound incubation
KRas G12V = KRas G12V (Homo sapiens, UniProt P01116, G12V); test: biochemical; conditions: Binding to KRas (IC50 nM) G12V, TR-FRET displacement, KRas G12V
KRas G12V, sequence (P01116 1-169 isoform P01116-2 G12V): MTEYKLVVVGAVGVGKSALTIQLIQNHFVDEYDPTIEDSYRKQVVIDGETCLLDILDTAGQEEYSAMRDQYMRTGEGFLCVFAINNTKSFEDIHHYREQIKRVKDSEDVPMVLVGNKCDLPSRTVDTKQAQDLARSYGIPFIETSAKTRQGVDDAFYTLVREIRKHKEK

KRas G12R, sequence (P01116 1-169 isoform P01116-2 G12R): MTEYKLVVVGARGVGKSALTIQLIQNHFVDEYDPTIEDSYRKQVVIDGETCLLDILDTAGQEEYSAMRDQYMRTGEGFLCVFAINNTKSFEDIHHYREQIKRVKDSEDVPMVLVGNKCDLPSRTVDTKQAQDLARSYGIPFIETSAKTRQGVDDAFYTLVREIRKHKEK
KRas G12D, sequence (P01116 1-169 isoform P01116-2 G12D): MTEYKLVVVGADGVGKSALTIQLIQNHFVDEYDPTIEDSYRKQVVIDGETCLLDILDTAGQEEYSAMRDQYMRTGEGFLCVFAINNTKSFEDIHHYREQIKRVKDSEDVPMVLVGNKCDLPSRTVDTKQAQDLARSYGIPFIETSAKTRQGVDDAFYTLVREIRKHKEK

IC50 (ASPC1 cells) [nM]	IC50 (H727 cells) [nM]	IC50 (KRas G12D) [nM]	IC50 (KRas G12R) [nM]	IC50 (KRas G12V) [nM]	IC50 (HCT116 cells; HCT-116, 3 h, 3 hr compound incubation, Cisbio pERK HTRF) [nM]	IC50 (H358 cells; NCI-H358, 3 h, 3 hr compound incubation, Cisbio pERK HTRF) [nM]	IC50 (A549 cells; A549, 3 h, 3 hr compound incubation, Cisbio pERK HTRF) [nM]	IC50 (H460 cells; NCI-H460, 3 h, 3 hr compound incubation, Cisbio pERK HTRF) [nM]	Compound	inhibition at 0.1 µM (HCT116 cells) [%]	inhibition at 0.1 µM (ASPC1 cells) [%]	inhibition at 0.1 µM (H727 cells) [%]	inhibition at 0.1 µM (H358 cells) [%]	inhibition at 0.1 µM (A549 cells) [%]	inhibition at 0.1 µM (H460 cells) [%]
124	1310	< 2	3	< 2					CCc1c(F)ccc2cc(O)cc(N3CCc4c(nc(OC[C@@]56CCCN5C[C@H](F)C6)nc4N4CCCn5nc(C(=O)N6CC7CC6CN7)cc5C4)C3)c12 (stereo partly drawn) [Example 502, 2,5-diazabicyclo[2.2.1]heptan-2-yl(5-(7-(8-ethyl-7-fluoro-3-hydroxynaphthalen-1-yl)-2-(((2R,7aS)-2-fluorohexahydro-1H-pyrrolizin-7a-yl)methoxy)-5,6,7,8-tetrahydropyrido[3,4-d]pyrimidin-4-yl)-5,6,7,8-tetrahydro-4H-pyrazolo[1,5-a][1,4]diazepin-2-yl)methanone]	8	22	7	5	11	7
830	1180	2	4	6					CCc1c(F)ccc2cc(O)cc(N3CCc4c(nc(OC[C@@]56CCCN5C[C@H](F)C6)nc4N4CCCn5nc(CNS(=O)(=O)NC)cc5C4)C3)c12 [Example 324, 7-(8-ethyl-7-fluoro-3-hydroxy-1-naphthyl)-2-(((2R,7aS)-2-fluorotetrahydro-1H-pyrrolizin-7a(5H)-yl)methoxy)-4-(2-((methylsulfamoyl)amino)methyl-7,8-dihydro-4H-pyrazolo[1,5-a][1,4]diazepin-5(6H)-yl)-6,8-dihydro-5H-pyrido[3,4-d]pyrimidine]	-1			4	11	21

More lines, now with the values behind:

Compound	IC50 (ASPC1 cells) [nM]	IC50 (H727 cells) [nM]	IC50 (KRas G12D) [nM]	IC50 (KRas G12R) [nM]	IC50 (KRas G12V) [nM]	IC50 (HCT116 cells; HCT-116, 3 h, 3 hr compound incubation, Cisbio pERK HTRF) [nM]	IC50 (H358 cells; NCI-H358, 3 h, 3 hr compound incubation, Cisbio pERK HTRF) [nM]	IC50 (A549 cells; A549, 3 h, 3 hr compound incubation, Cisbio pERK HTRF) [nM]	IC50 (H460 cells; NCI-H460, 3 h, 3 hr compound incubation, Cisbio pERK HTRF) [nM]	inhibition at 0.1 µM (HCT116 cells) [%]	inhibition at 0.1 µM (ASPC1 cells) [%]	inhibition at 0.1 µM (H727 cells) [%]	inhibition at 0.1 µM (H358 cells) [%]	inhibition at 0.1 µM (A549 cells) [%]	inhibition at 0.1 µM (H460 cells) [%]
CCc1c(F)ccc2cc(O)cc(N3CCc4c(nc(OCC5(CN(C)C)CC5)nc4N4CCCn5nc(C(=O)N6CCOCC6)cc5C4)C3)c12 [Example 429, (5-(2-((1-((dimethylamino)methyl)cyclopropyl)methoxy)-7-(8-ethyl-7-fluoro-3-hydroxynaphthalen-1-yl)-5,6,7,8-tetrahydropyrido[3,4-d]pyrimidin-4-yl)-5,6,7,8-tetrahydro-4H-pyrazolo[1,5-a][1,4]diazepin-2-yl)(morpholino)methanone]	113	95	< 2	3	< 2					-4			19	23	-3
O=S1(=O)NCC2(CCCN(c3nc(OC[C@@]45CCCN4C[C@H](F)C5)nc4c3CCN(c3cc(O)cc5ccc(F)c(F)c35)C4)C2)N1 (stereo partly drawn) [Example 447, 7-(7-(7,8-difluoro-3-hydroxynaphthalen-1-yl)-2-(((2R,7aS)-2-fluorohexahydro-1H-pyrrolizin-7a-yl)methoxy)-5,6,7,8-tetrahydropyrido[3,4-d]pyrimidin-4-yl)-2-thia-1,3,7-triazaspiro[4.5]decane 2,2-dioxide]	202	179	< 2	< 2	< 2	338	44	373	170	28	23	24	61	28	35
CCc1c(F)ccc2cc(O)cc(N3CCc4c(nc(N5CC(C)(N)C5)nc4N4CCCn5nc(C(=O)N(C)C)cc5C4)C3)c12 [Example 427, 5-(2-(3-amino-3-methylazetidin-1-yl)-7-(8-ethyl-7-fluoro-3-hydroxynaphthalen-1-yl)-5,6,7,8-tetrahydropyrido[3,4-d]pyrimidin-4-yl)-N,N-dimethyl-5,6,7,8-tetrahydro-4H-pyrazolo[1,5-a][1,4]diazepine-2-carboxamide]			182	537	253					4	-23	-14	-16	0	25
